Laboratory results: patent publication US7763617B2, “Pyrazolopyridine-4-yl pyridazinone derivatives and addition salts thereof, and PDE inhibitors comprising the same derivatives or salts as active ingredient” (Kyorin Pharmaceutical Co., Ltd., priority 2005, dated 2010)
Read-outs that look alike come from different tables or passages of the source.

Experiments:
PDE4Bcat = molecular target: T1, PDE4Bcat (Homo sapiens, UniProt Q07343); experiment: Inhibition of phosphodiesterase activity, [3H]-cAMP hydrolysis, recombinant PDE4Bcat; type: biochemical; details: cAMP 2 μmol/L, read-out: IC50(μmol/L) PDE4
T1 construct: catalytic domain (indicated as “cat,” hereinafter), PDE4Bcat; made in house; host or cells: Sf9 insect cells (baculovirus, Bac-to-Bac)
Experimental: (§1) RT-PCR was performed to isolate cDNA fragments of PDE3A catalytic domain (indicated as “cat,” hereinafter), PDE4Bcat, PDE5Acat and PDE10A1 from human RNA. Using Gateway system (Invitrogen) and Bac-to-Bac (registered trademark) Baculovirus Expression system (Invitrogen), the isolated cDNA fragments were transfected into Sf9 insect cells for expression of the PDE proteins. The recombinant PDE3Acat, PDE4Bcat, PDE5Acat and PDE10A1 proteins were isolated from culture supernatant or cell extracts of Sf9 cells expressed high levels of these proteins by ion-exchange chromatography and used for the following experiments.
(§2) 4 mmol/L solution of each test compound was serially diluted 4-fold with 15% DMSO solution to prepare the solutions with concentrations of 15 nmol/L to 4 mmol/L (final concentrations=1.5 nmol/L-400 μmol/L). 10 μL of each test compound solution was added to each well of 96 plate with 10 μL of [^3H]-cAMP or [^3H]-cGMP solution, diluted with a buffer (40 mmol/L Tris-HCl (pH 7.4), 10 mmol/L MgCl2) to the concentration shown in Table 20 and 40 μL of each of the human recombinant PDE proteins in units shown in Table 20. The plate was incubated at 30° C. for 20 min, and then at 65° C. for 2 min. Subsequently, 25 μL of 1 mg/mL 5′-nucleotidase (Crotalus atrox venom, Sigma) was added to each well and the plate was incubated at 30° C. for 10 min. 200 μL of Dowex solution (300 mg/mL Dowex 1×8-400 (Sigma Aldrich), 33% ethanol) was then added to each well and the plate was shaken at 4° C. for 20 min. Subsequently, 200 μL of MicroScint 20 (Packard) was added to each well and the radioactivity of each sample was measured by a scintillation counter (Topcount, Packard) IC50 was calculated by GraphPad Prism v3.03 (GraphPad Software).

PDE10A1 = molecular target: T2, PDE10A1 (Homo sapiens, UniProt Q9Y233); experiment: Inhibition of phosphodiesterase activity, [3H]-cAMP hydrolysis, recombinant PDE10A1; type: biochemical; details: human recombinant PDE10A1, cAMP 0.2 μmol/L; read-out: IC50(μmol/L) PDE10
T2 construct: made in house; host or cells: Sf9 insect cells (baculovirus, Bac-to-Bac)
Experimental: as §1, §2

[1] = molecular target: T3, PDE3A catalytic domain (PDE3Acat) (Homo sapiens, UniProt Q14432); experiment: Inhibition of phosphodiesterase activity, [3H]-cAMP hydrolysis, recombinant PDE3Acat; type: biochemical; details: cAMP 2 μmol/L
T3 construct: cDNA fragments of PDE3A catalytic domain (indicated as “cat,” hereinafter); made in house; host or cells: Sf9 insect cells (baculovirus, Bac-to-Bac)
Experimental: as §1, §2

PDE5Acat = PDE5Acat (Homo sapiens, UniProt O76074); experiment: Inhibition of phosphodiesterase activity, [3H]-cGMP hydrolysis, recombinant PDE5Acat; type: biochemical; details: cGMP 2 μmol/L, read-out: IC50(μmol/L) PDE5
Experimental: as §1, §2

[2] = tested on: isolated guinea pig tracheal smooth muscles; experiment: Relaxant effect on histamine-induced contraction of isolated guinea pig tracheal smooth muscles; details: Cavia porcellus; histamine 10^-5 mol/L contraction, relaxation as % of maximum response to papaverine 10^-4 mol/L; read-out: IC50(μmol/L), concentration required to 50% relaxation
Experimental: Guinea pigs were exsanguinated and the trachea was immediately isolated and cut into 2 to 3 cartilage ring segments to prepare tracheal ring preparations. The tracheal rings were suspended in 10 mL of Tyrode's solution bubbled with a gaseous mixture of 95% O2+5% CO2 at 37° C. The composition of the Tyrode's solution (mM) was as follows: NaCl 136.9, KCl 2.7, CaCl2 1.8, MgCl2 1.0, NaH2PO4 0.4, NaHCO3 11.9 and Gucose 5.6. The contractile response was measured by an isometric transducer (UM-203, KISHIMOTO) and recorded on a recorder ([…] SERVOCORDER SR6221). After about 1 hour incubation with 1.5 g of resting tention, histamine (10^−5 mol/L) was added to induce the contractile response. After confirming the response, the preparations were washed with Tyrode's solution (10 mL×3). Then indomethacin (10^−5 mol/L) was applied and the preparations were equilibrated for at least 30 min under 1.5 g tension. Subsequently, histamine (10^−5 mol/L) was applied. After the contraction reached a steady state, each compound was added in a cumulative manner (10^−8 mol/L-3×10^−5 mol/L). Each compound was prepared as a 10^−1 mol/L solution in DMSO, which was diluted with distilled water for use. After addition of test compounds, papaverine (10^−4 mol/L) was added to determine the maximum relaxation of the preparation. Relaxant response of test compounds were expressed as a percentage of the maximum response to papaverine. IC50 was defined as a concentration of the compound required to 50% relaxation. DMSO was used as a control.

[3] = tested on: histamine-induced bronchoconstriction; experiment: Histamine-induced bronchoconstriction in guinea pigs; type: in vivo, guinea pig; details: Cavia porcellus, iv, 0.5 min, 30 seconds after administration, histamine 12.5 μg/kg i.v.; for inhibition in vivo at 1 mg/kg: test compound 1 mg/kg i.v.; for inhibition in vivo at 0.1 mg/kg: values in brackets: test compound 0.1 mg/kg, i.v.
Experimental: Guinea pigs were anesthetized with pentobarbital (30 mg/kg, i.p.). A cannula for IV administeration, a cannula for collecting blood and measurement of blood pressure and a trachea cannula were inserted into the left exterior jugular vein, right interior carotid artery and trachea, respectively. The animals were placed under artificial respiration at 60 times/min and 10 mL/kg/stroke. The airflow through the branch of the tracheal cannula was measured by a bronchospasm transducer (Ugo-Basile) and recorded on a computer via Power Lab (ADInstruments Japan). The animals were immobilized with gallamine (10 mg/kg, i.v.), then administered histamine at 10-minute intervals (12.5 μg/kg, i.v.). […] To examine the inhibitory activity of test compound, the histamine-induced bronchoconstriction was measured after 30 seconds of drug administration. The bronchoconstriction was recorded as the change of the airflow: The results were shown by percentages of the maximum histamine-induced bronchoconstriction. Each test compound was prepared as a 10 mg/mL solution in DMSO. Gallamine was prepared as a 10 mg/mL solution in physiological saline. Histamine was prepared as a 1 mg/mL solution in physiological saline, which was diluted with physiological saline to 62.5 μg/mL for use.

[4] = human recombinant PDE3Acat, read-out: IC50(μmol/L) PDE3
[5] = IC50(μmol/L) PDE3, human recombinant PDE3Acat

T3 sequence (Q14432 674-1093 limits assumed): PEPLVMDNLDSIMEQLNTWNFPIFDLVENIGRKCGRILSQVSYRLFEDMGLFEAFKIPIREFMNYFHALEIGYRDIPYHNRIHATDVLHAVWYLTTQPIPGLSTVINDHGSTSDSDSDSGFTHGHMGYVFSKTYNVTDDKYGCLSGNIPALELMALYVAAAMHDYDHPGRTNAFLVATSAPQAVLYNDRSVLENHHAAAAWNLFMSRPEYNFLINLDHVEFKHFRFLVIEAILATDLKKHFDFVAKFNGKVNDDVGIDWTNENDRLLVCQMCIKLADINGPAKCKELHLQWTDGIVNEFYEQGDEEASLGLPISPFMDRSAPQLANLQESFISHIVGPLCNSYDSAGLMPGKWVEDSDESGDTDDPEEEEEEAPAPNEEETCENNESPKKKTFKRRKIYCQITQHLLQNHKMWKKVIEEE
T1 sequence (Q07343 330-659 limits assumed): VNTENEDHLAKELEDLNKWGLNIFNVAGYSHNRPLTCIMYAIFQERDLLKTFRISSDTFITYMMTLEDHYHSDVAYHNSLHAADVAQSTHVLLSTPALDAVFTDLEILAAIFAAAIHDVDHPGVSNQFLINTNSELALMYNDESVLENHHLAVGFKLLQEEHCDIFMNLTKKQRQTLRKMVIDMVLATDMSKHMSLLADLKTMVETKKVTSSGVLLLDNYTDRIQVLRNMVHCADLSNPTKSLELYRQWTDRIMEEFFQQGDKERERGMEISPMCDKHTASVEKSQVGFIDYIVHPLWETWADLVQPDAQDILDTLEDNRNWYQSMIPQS
T2 sequence (Q9Y233 1-779 isoform Q9Y233-1): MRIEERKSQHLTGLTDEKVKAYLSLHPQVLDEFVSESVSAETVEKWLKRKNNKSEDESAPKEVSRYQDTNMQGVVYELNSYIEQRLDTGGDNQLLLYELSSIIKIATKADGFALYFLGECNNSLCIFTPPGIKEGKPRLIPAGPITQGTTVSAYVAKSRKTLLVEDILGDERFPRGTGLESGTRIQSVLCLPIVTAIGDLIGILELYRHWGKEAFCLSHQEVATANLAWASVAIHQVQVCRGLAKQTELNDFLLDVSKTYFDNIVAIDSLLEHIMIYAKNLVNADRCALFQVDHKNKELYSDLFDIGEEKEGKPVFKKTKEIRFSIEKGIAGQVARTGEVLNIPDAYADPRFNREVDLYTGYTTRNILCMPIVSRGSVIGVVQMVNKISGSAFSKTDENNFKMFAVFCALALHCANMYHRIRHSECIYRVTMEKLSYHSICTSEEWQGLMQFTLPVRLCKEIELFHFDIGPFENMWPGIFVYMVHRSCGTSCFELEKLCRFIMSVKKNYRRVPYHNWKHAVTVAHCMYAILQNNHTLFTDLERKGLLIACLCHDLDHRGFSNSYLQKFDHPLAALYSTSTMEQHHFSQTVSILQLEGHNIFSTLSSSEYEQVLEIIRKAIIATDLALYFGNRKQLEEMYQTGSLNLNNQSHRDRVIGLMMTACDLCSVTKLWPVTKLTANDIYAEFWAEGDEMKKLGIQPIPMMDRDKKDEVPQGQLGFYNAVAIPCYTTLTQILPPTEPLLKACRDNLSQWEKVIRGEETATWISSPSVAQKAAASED

| Structure (SMILES) | IC50 (PDE4Bcat) | IC50 (PDE10A1) | IC50 [1, 4] | IC50 (PDE5Acat) | IC50 [2] | IC50 [1, 5] | inhibition in vivo at 1 mg/kg [3] | inhibition in vivo at 0.1 mg/kg [3] |
| --- | --- | --- | --- | --- | --- | --- | --- | --- |
| COC(=O)c1c(C(C)C)nn2c(OC)ccc(-c3ccc(=O)n(Cc4ccccc4)n3)c12 [Example 266, 2-benzyl-6-(7-methoxy-3-methoxycarbonyl-2-isopropyl-pyrazolo[1,5-a]pyridine-4-yl)-3-(2H)-pyridazinone] | 1 to 10 µmol/L | > 10 µmol/L | > 10 µmol/L | > 10 µmol/L |  |  |  |  |
| COc1ccc(C2=NNC(=O)C(C)C2)c2cc(C(C)C)nn12 (centres unmarked) [Example 283] | 0.1 to 1 µmol/L | > 10 µmol/L | > 10 µmol/L | > 10 µmol/L |  |  |  |  |
| COc1ccc(-c2ccc(=O)n(Cc3ccccc3)n2)c2cc(C(C)C)nn12 [Example 272] |  | 0.1 to 1 µmol/L |  |  |  |  |  |  |
| COc1ccc(-c2cc(C)c(=O)[nH]n2)c2cc(C(C)C)nn12 [Example 278, 6-(7-methoxy-2-isopropyl-pyrazolo[1,5-a]pyridine-4-yl)-4-methyl-3-(2H)-pyridazinone] | 0.1 to 1 µmol/L | > 10 µmol/L | > 10 µmol/L | > 10 µmol/L |  |  |  |  |
| CCc1cc2c(C3=NNC(=O)CC3C)ccc(OC)n2n1 (single isomer, unassigned; (-)) [Example 316, (−)-6-(2-ethyl-7-methoxy-pyrazolo[1,5-a]pyridine-4-yl)-5-methyl-4,5-dihydro-3-(2H)-pyridazinone] | < 1 µmol/L | > 10 µmol/L |  | > 10 µmol/L | 0.676 µmol/L | > 10 µmol/L |  |  |
| CCc1cc2c(C3=NNC(=O)CC3C)cc(Cl)cn2n1 (single isomer, unassigned; (+)) [Example 313, (+)-6-(6-chloro-2-ethyl-pyrazolo[1,5-a]pyridine-4-yl)-5-methyl-4,5-dihydro-3-(2H)-pyridazinone] | 1 to 10 µmol/L | 0.1 to 1 µmol/L | 1 to 10 µmol/L | > 10 µmol/L | 0.5 µmol/L |  | ≥ 90% |  |
| COc1ccc(C2=NN(Cc3ccccc3)C(=O)CC2)c2cc(C(C)C)nn12 [Example 284] |  | 1 to 10 µmol/L |  |  |  |  |  |  |
| CCc1cc2c(C3=NNC(=O)CC3C)ccc(OC)n2n1 (centres unmarked) [Example 216] | 0.1 to 1 µmol/L | 1 to 10 µmol/L |  | > 10 µmol/L | 0.65 µmol/L | > 10 µmol/L | ≥ 90% |  |
| CCc1cc2c(C3=NNC(=O)CC3C)ccc(OC)n2n1 (single isomer, unassigned; (+)) [Example 315, (+)-6-(2-ethyl-7-methoxy-pyrazolo[1,5-a]pyridine-4-yl)-5-methyl-4,5-dihydro-3-(2H)-pyridazinone] | 1 to 10 µmol/L | 1 to 10 µmol/L |  | > 10 µmol/L |  | 1 to 10 µmol/L |  | ≥ 90% |
| COc1ccc(C2=NN(Cc3cccnc3)C(=O)CC2)c2cc(C(C)C)nn12 [Example 285] | 1 to 10 µmol/L | 1 to 10 µmol/L | > 10 µmol/L | > 10 µmol/L |  |  |  |  |
| CCc1cc2c(C3=NNC(=O)CC3)cc(Cl)cn2n1 [Example 202] | > 10 µmol/L | 1 to 10 µmol/L | > 10 µmol/L | > 10 µmol/L |  |  | ≥ 90% |  |
| CCc1cc2c(-c3ccc(=O)[nH]n3)ccc(OC)n2n1 [Example 306] | 1 to 10 µmol/L | > 10 µmol/L | 1 to 10 µmol/L | > 10 µmol/L |  |  | ≥ 90% |  |
| CCc1cc2c(C3=NNC(=O)CC3C)cc(Cl)cn2n1 (single isomer, unassigned; (-)) [Example 314, (−)-6-(6-chloro-2-ethyl-pyrazolo[1,5-a]pyridine-4-yl)-5-methyl-4,5-dihydro-3-(2H)-pyridazinone] | 0.1 to 1 µmol/L | > 10 µmol/L | > 10 µmol/L | > 10 µmol/L |  |  |  | 80 to 90% |
| CCc1cc2c(C3=NNC(=O)CC3C)ccc(NCCO)n2n1 (centres unmarked) [Example 247, 6-[2-ethyl-7-(2-hydroxyethylamino)-pyrazolo[1,5-a]pyridine-4-yl]-4,5-dihydro-5-methyl-3-(2H)-pyridazinone] | 1 to 10 µmol/L |  | 1 to 10 µmol/L |  |  |  |  | 70 to 80% |
| COc1ccc(-c2ccc(=O)n(Cc3ccccc3)n2)c2c(C(=O)O)c(C(C)C)nn12 [Example 267, 2-benzyl-6-(3-carboxy-7-methoxy-2-isopropyl-pyrazolo[1,5-a]pyridine-4-yl)-3-(2H)-pyridazinone] | 1 to 10 µmol/L | > 10 µmol/L | > 10 µmol/L | > 10 µmol/L |  |  |  |  |
| CCc1nn2c([S+](C)[O-])ccc(C3=NNC(=O)CC3C)c2c1O (centres unmarked) [Example 250] | 0.1 to 1 µmol/L |  | 1 to 10 µmol/L |  |  |  |  | ≥ 90% |
| COc1ccc(-c2ccc(=O)n(Cc3cccnc3)n2)c2cc(C(C)C)nn12 [Example 273] | 1 to 10 µmol/L | 1 to 10 µmol/L | > 10 µmol/L | > 10 µmol/L |  |  |  |  |
| COc1ccc(C2=NNC(=O)CC2C)c2cc(C(C)C)nn12 (centres unmarked) [Example 282] | 0.1 to 1 µmol/L | 1 to 10 µmol/L | 1 to 10 µmol/L | > 10 µmol/L |  |  | ≥ 90% |  |
| COCc1cc2c(C3=NNC(=O)CC3C)ccc(OC)n2n1 (centres unmarked) [Example 220] | 0.1 to 1 µmol/L |  | 1 to 10 µmol/L |  |  |  |  | ≥ 90% |
| CCc1cc2c(C3=NNC(=O)CC3)ccc(OC)n2n1 [Example 210, 6-(2-ethyl-7-methoxy-pyrazolo[1,5-a]pyridine-4-yl)-4,5-dihydro-3-(2H)-pyridazinone] | 1 to 10 µmol/L | > 10 µmol/L | > 10 µmol/L | > 10 µmol/L |  |  | ≥ 90% |  |
| CCc1cc2c(C3=NN(Cc4cccnc4)C(=O)CC3C)cc(Cl)cn2n1 (centres unmarked) [Example 312, 6-(6-chloro-2-ethyl-pyrazolo[1,5-a]pyridine-4-yl)-4,5-dihydro-5-methyl-2-(pyridine-3-ylmethyl)-3-(2H)-pyridazinone] | 1 to 10 µmol/L | > 10 µmol/L | > 10 µmol/L | > 10 µmol/L |  |  |  |  |
